Measurements published in PMC11761228, “Cinnamic Acid Compounds (p-Coumaric, Ferulic, and p-Methoxycinnamic Acid) as Effective Antibacterial Agents Against Colistin-Resistant Acinetobacter baumannii” (Antibiotics, 2025).
≈ marks a conversion by molar mass, not a printed value. Where “and” joins values, the source holds several entries; their conditions need not be identical. Identical values can stand only once. Entries after “also recorded” stand apart in the source; their conditions may differ. Like-named read-outs stand apart in the source and are kept apart here.

Tests used:
COLR-Ab isolates [1] = test: Broth microdilution MIC determination (CLSI); type: cell-based, Acinetobacter baumannii
Method: The broth microdilution method, as recommended by the CLSI, was used to determine the MIC values of COL, p-CA, FA, and p-MCA [46]. The serial two-fold dilutions of antimicrobial agents were prepared using 96-well microplates with cation-adjusted Mueller-Hinton Broth (MHB) (CAMHB, Merck KGaA, Darmstadt, Germany). Firstly, an initial concentration of 8192 µg/mL was chosen to determine the MIC values of all compounds against COLR-Ab isolates. […] The bacterial suspension was adjusted to the 0.5 McFarland standard and added to each well (final bacterial concentration: 5 × 10^5 colony forming units [CFU]/mL). Additionally, the microdilution plates included controls for bacterial growth (CAMHB + bacteria) and medium sterility (CAMHB). Microdilution plates were incubated at 35 ± 2 °C for 18–24 h. The MIC values were calculated by comparing the growth densities in the antibiotic-containing wells to those in the control wells used in each test set. Each experiment was conducted in triplicate.

COLR-Ab isolates [2] = test: Checkerboard synergy test with COL; type: cell-based, Acinetobacter baumannii
Method: The checkerboard synergy test, based on microdilution, was carried out to investigate the combined activity of antibiotic and cinnamic acid derivatives. The effectiveness of the two antimicrobial drugs in combination was evaluated using a 96-well microplate for each strain. The medium employed was CAMHB. […] COL was added vertically, and cinnamic acids was added horizontally to the wells. The bacterial suspension was prepared to 0.5 McFarland standard density, and the final bacterial concentration was adjusted to 5 × 10^5 CFU/mL. In total, 10 µL of bacterial inoculum was added to each well. Bacterial growth control (CAMHB + bacteria) and medium sterility control (CAMHB) were also examined for each plate. The plates were incubated at 35 ± 2 °C for 18–24 h. Each experiment was conducted in triplicate.
The fractional inhibition concentrations (FIC) of all antimicrobial agents were calculated for the evaluation of the results in accordance with the following formulae:FICA = (MIC of A in combination/MIC of A alone)FICB = (MIC of B in combination/MIC of B alone)FICindex(FICI) = FICA + FICB
FICI ≤ 0.5 was considered to indicate synergism, […] ≤ 4 was considered to indicate indifference, and FICI > 4 was considered to indicate antagonism. In the formulae, the letter “A” is used to represent COL, while “B” is used to represent one of the compounds, p-CA, FA, and p-MCA.

COLR-Ab4 isolate = test: Scanning electron microscopy of cell morphology; type: cell-based, Acinetobacter baumannii; details: COLR-Ab4, MIC concentrations, 3 h
Method: To examine the potential impact of the antimicrobial agents on the cell morphology of the COLR-Ab4 isolate, SEM studies were carried out according to the method Bendali et al. (2008), with minor modifications. […] Bacteria incubated without treatment with agents were used as controls. After incubation, the suspension was centrifuged for 10 min at 4000× g. The bacteria were washed twice with 0.1 M phosphate-buffered solution (PBS, pH 7.0). The pellet was fixed in 2.5% glutaraldehyde solution and kept for at 4 °C for 2 h. After washing the bacteria again twice with PBS, the sample was fixed in 1% osmium tetroxide solution for 1 h. Then, the samples were dehydrated through suspension in increasing concentrations of ethanol (30, 50, 70, 80, 90, and 100%) for 10 min each. The ethanol was then replaced by 100% acetone. Finally, the samples were fixed on an SEM support, coated with gold/palladium using sputtering in a vacuum, and examined using SEM (Zeiss LEO 1430, Cambridge, UK).

Vero cells = test: CCK-8 cell viability assay; type: cell-based, African green monkey; details: 24 h; for Cytotoxicity (doses with cytotoxic effects): 0.78125–200 μg/mL
Method: 293T [HEK-293] (ATCC® CRL-1573), HUVEC (ATCC CRL-1730 ™, human umbilical vein endothelial cells) and Vero (ATCC® CCL-81™, African green monkey kidney epithelial cells) cells were used in this study. Cells were cultured in RPMI-1640 medium supplemented with 10% fetal bovine serum, 0.1 mM non-essential amino acids, […], 2 mM L-glutamine, and 10 μg/mL gentamicin in a humidified atmosphere of 5% CO2, 95% air at 37 °C. After growing to approximately 80% confluence, the cells were detached with 0.25% (w/v) trypsin-EDTA and then subcultured. The cells were stored in a deep freezer at −80 °C in a solution prepared with 95% medium and 5% DMSO.
Cell viability was assessed according to the manufacturer’s protocol using a Cell Counting Kit-8 (CCK-8) (KTA1020, Abbkine, Atlanta, GA, USA). The assay is based on the reduction of 2-(2-methoxy-4-nitrophenyl)-3-(4-nitrophenyl)-5-(2,4-disulfophenyl)-2H-tetrazolium monosodium salt (WST-8) by cellular mitochondrial dehydrogenase. Cells were seeded in 96-well plates at a final concentration of 5 × 10^3 cells/well in 100 μL complete culture medium and were allowed to attach for 24 h. […] Immediately after the treatment, cell viability in a single column was determined and recorded as time zero (T0). The plain medium with 1% FBS was used as a negative control, whereas ethanol was used as solvent control. Each treatment was performed in four well replicates. At the end of the incubation, the medium was gently aspirated to terminate the experiment, a total volume of 10 μL (5 mg/mL) of CCK-8 solution was added to each well and further incubated under the same conditions for 4 h. The absorbances at 450 nm were measured in a microplate reader (Thermo Labsystem, Waltham, MA, USA), using wells without cells as background. The sample readings were calculated by subtracting the average of background absorbances. The half-maximal inhibitory concentration (IC50) of each extract was derived by a nonlinear regression model (curve-fit) based on a sigmoidal dose response curve (variable slope) and was computed using Graph-Pad Prism, version 4.00 (Graph-Pad Software, San Diego, CA, USA). Cell viability was calculated using the following formula: Cell viability (%) = (ODtreatment − ODblank)/(ODcontrol − ODblank) × 100% [78].

Row | Compound | MIC (COLR-Ab isolates [1]; COLR-Ab1) [µg/mL] | MIC (COLR-Ab isolates [1]; COLR-Ab2) [µg/mL] | MIC (COLR-Ab isolates [1]; COLR-Ab3) | MIC (COLR-Ab isolates [1]; COLR-Ab4) [µg/mL] | MIC (COLR-Ab isolates [1]; COLR-Ab5) [µg/mL] | Interpretation of FICI for COL combined with the compound (COLR-Ab isolates [2]; COLR-Ab1) | Mean FICI for COL combined with the compound (COLR-Ab isolates [2]; COLR-Ab1) | Interpretation of FICI for COL combined with the compound (COLR-Ab isolates [2]; COLR-Ab2) | Mean FICI for COL combined with the compound (COLR-Ab isolates [2]; COLR-Ab2) | Interpretation of FICI for COL combined with the compound (COLR-Ab isolates [2]; COLR-Ab3) | Mean FICI for COL combined with the compound (COLR-Ab isolates [2]; COLR-Ab3) | Interpretation of FICI for COL combined with the compound (COLR-Ab isolates [2]; COLR-Ab4) | Mean FICI for COL combined with the compound (COLR-Ab isolates [2]; COLR-Ab4) | Interpretation of FICI for COL combined with the compound (COLR-Ab isolates [2]; COLR-Ab5) | Mean FICI for COL combined with the compound (COLR-Ab isolates [2]; COLR-Ab5) | Cell morphology by SEM (COLR-Ab4 isolate) | Cytotoxicity (doses with cytotoxic effects) (Vero cells) | further results
1 | COc1cc(/C=C/C(=O)O)ccc1O [FA, ferulic acid] | 1024 (≈ 5270 µM) | 1024 (≈ 5270 µM) | 1024 µg/mL (≈ 5270 µM) | 512 (≈ 2640 µM) | 1024 (≈ 5270 µM) | S (synergistic effect) | 0.15 | S (synergistic effect) | 0.15 | S (synergistic effect) | 0.15 | I (indifferent effect) | 0.51 | S (synergistic effect) | 0.12 | certain morphological changes in bacterial cells | no cytotoxic effects; also recorded: did not exhibit any cytotoxic effect | MIC (COLR-Ab isolates [1]; all isolates except COLR-Ab4): 1024 µg/mL (≈ 5270 µM)
2 | O=C(O)/C=C/c1ccc(O)cc1 [p-CA, p-coumaric acid] |  |  |  |  | 128 (≈ 780 µM) | S (synergistic effect) | 0.16 | S (synergistic effect) | 0.19 | S (synergistic effect) | 0.16 | S (synergistic effect) | 0.15 | S (synergistic effect) | 0.28 | certain morphological changes in bacterial cells | no cytotoxic effects; also recorded: did not exhibit cytotoxic effects | MIC (COLR-Ab isolates [1]; Acinetobacter baumannii, COLR-Ab1, read-out: MIC): 256 µg/mL (≈ 1560 µM); MIC (COLR-Ab isolates [1]; Acinetobacter baumannii, COLR-Ab2, read-out: MIC): 256 µg/mL (≈ 1560 µM); MIC (COLR-Ab isolates [1]; Acinetobacter baumannii, COLR-Ab3, read-out: MIC): 256 µg/mL (≈ 1560 µM); MIC (COLR-Ab isolates [1]; Acinetobacter baumannii, COLR-Ab4, read-out: MIC): 256 µg/mL (≈ 1560 µM); MIC (COLR-Ab isolates [1]; Acinetobacter baumannii, COLR-Ab5, read-out: MIC): 128 µg/mL (≈ 780 µM); MIC (COLR-Ab isolates [1]; Acinetobacter baumannii, all isolates except COLR-Ab5, read-out: MIC): 256 µg/mL (≈ 1560 µM); IC50 value (Vero cells; tested range 0.78–200 μg/mL): indeterminate
3 | COc1ccc(C=CC(=O)O)cc1 [p-MCA, p-methoxycinnamic acid] | 512 (≈ 2870 µM) | 512 (≈ 2870 µM) | 256 µg/mL and 128 µg/mL | 256 (≈ 1440 µM) | 128 (≈ 718 µM) | S (synergistic effect) | 0.09 | S (synergistic effect) | 0.09 | S (synergistic effect) | 0.27 | S (synergistic effect) | 0.14 | S (synergistic effect) | 0.27 | certain morphological changes in bacterial cells | only 200 μg/mL p-MCA induced cytotoxicity; also recorded: only at 200 μg/mL (p < 0.05) | 
